Laboratory results as given in US8343987B2, “Heterocyclic derivatives” (Bayer Intellectual Property GmbH, priority 2004, dated 2013).

How the values were obtained:
[1] = target: T1, human neutrophil elastase (HNE) (Homo sapiens, UniProt P08246); test: In vitro inhibition of HNE using a fluorogenic peptide substrate (Example I-A); type: biochemical; details: substrate MeOSuc-Ala-Ala-Pro-Val-AMC, continuous read-out, 384 MTP format
T1 construct: purchased SERVA Electrophoresis GmbH, Heidelberg, Germany #20927.01
T1 sequence (P08246 30-267): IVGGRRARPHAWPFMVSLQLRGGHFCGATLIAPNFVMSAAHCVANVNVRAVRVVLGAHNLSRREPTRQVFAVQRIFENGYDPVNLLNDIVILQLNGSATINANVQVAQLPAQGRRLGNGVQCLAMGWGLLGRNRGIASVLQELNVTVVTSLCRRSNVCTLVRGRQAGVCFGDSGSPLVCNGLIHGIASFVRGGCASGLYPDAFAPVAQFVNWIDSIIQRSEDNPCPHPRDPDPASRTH
Protocol: The test solution is prepared by mixing 10 μl of test compound dilution, 20 μl of HNE enzyme dilution (final concentration 8-0.4 μU/ml, routinely 2.1 μU/ml) and 20 μl of substrate dilution (final concentration 1 mM-1 μM, routinely 20 μM), respectively. The solution is incubated for 0-2 hrs at 37° C. (routinely one hour). The fluorescence of the liberated AMC due to the enzymatic reaction is measured at 37° C. (TECAN spectra fluor plus plate reader). […] IC50 values are determined by RFU-versus-[I] plots. Km and Km(app.) values are determined by Lineweaver-Burk plots and converted to K1 values by Dixon plots.

[2] = system: human polymorphonuclear cells (PMNs); test: In vitro PMN elastolysis assay (Example II-A); type: cell-based; details: mean±s.e.m.
Protocol: This assay is used to determine the elastolytic potential of human polymorphonuclear cells (PMNs) and assess the proportion of degradation due to neutrophil elastase [cf. Z. W. She et al., Am. J. Respir. Cell. Mol. Biol. 9386-392 (1993)].
Tritiated elastin, in suspension, is coated on to a 96 well plate at 10 μg per well. Test and reference [ZD-0892 (J. Med. Chem. 40, 1876-1885, 3173-3181 (1997), WO 95/21855) and α1 protease inhibitor (α1PI)] compounds are added to the wells at the appropriate concentrations. Human PMNs are separated from peripheral venous blood of healthy donors and resuspended in culture media. The neutrophils are added to the coated wells at concentrations ranging between […] cells per well. Porcine pancreatic elastase (1.3 μM) is used as a positive control for the assay, and α1PI (1.2 μM) is used as the positive inhibitor of neutrophil elastase. The cellular control is PMNs without compound at each appropriate cell density. The cells plus compounds are incubated in a humidified incubator at 37° C. for 4 hours. The plates are centrifuged to allow the harvest of cell supernatant only. The supernatant is transferred in 75 μl volumes to corresponding wells of a 96 well Lumaplate™ (solid scintillant containing plates). The plates are dried until no liquid is visible in the wells and read in a beta counter for 3 minutes per well. […]

Molecule	IC50 [1] [µM]	also measured
COC(=O)c1cccc(CN2C(=O)N(c3cccc(C(F)(F)F)c3)C(C)=C(C(C)=O)C2c2ccc(C#N)cc2)c1 (stereo not shown) [Example 1, Methyl 3-{[5-acetyl-6-(4-cyanophenyl)-4-methyl-2-oxo-3-[3-(trifluoromethyl-)phenyl]-3,6-dihydropyrimidin-1(2H)-yl]methyl}benzoate]	0.03	
CC1=C(C(=O)c2cccnc2)C(c2ccc(C#N)cc2)NC(=O)N1c1cccc(C(F)(F)F)c1 (stereo not shown) [Example 21A, 4-{6-Methyl-2-oxo-5-(pyridin-3-ylcarbonyl)-1-[3-(trifluoromethyl)phenyl]-1-,2,3,4-tetrahydro-pyrimidin-4-yl}benzonitrile]	0.06	
COc1ccc(C(=O)N[C@H](C(=O)N2CCC[C@H]2C(=O)N[C@H](C(=O)C(F)(F)F)C(C)C)C(C)C)cc1 [ZD-0892]		IC50 ([2]; n=2 different donors at 3.6×10^5 cells per well): 0.0455 ± 0.00775 µM
C=CCOC(=O)C1=C(C)N(c2cccc(C(F)(F)F)c2)C(=O)N(CC(=O)NS(=O)(=O)c2ccc(C(F)(F)F)cc2)C1c1ccc(C#N)cc1 (stereo not shown) [Example 67]	0.07	
CC(=O)C1=C(C)N(c2cccc(C(F)(F)F)c2)C(=O)N(Cc2ccc(C(CC(C)C)C(=O)O)cc2)C1c1ccc(C#N)cc1 (stereo not shown) [Example 19]	0.02	
CC(=O)C1=C(C)N(c2cccc(C(F)(F)F)c2)C(=O)N(Cc2ccc(C(=O)O)cc2)[C@@H]1c1ccc(C#N)cc1 [Example 22]	0.008	
CC1=C(C(=O)c2cccnc2)C(c2ccc(C#N)cc2)N(CC(=O)NS(=O)(=O)CC(F)(F)F)C(=O)N1c1cccc(C(F)(F)F)c1 (stereo not shown) [Example 55, 2-[6-(4-Cyanophenyl)-4-methyl-2-oxo-5-(pyridin-3-ylcarbonyl)-3-[3-(trifluoromethyl)phenyl]-3,6-dihydropyrimidin-1(2H)-yl]-N-[(2,2,2-trifluoroethyl)sulfonyl]acetamide]	0.02	
C=CCOC(=O)C1=C(C)N(c2cccc(C(F)(F)F)c2)C(=O)N(C2(C(=O)OCC)CC2)C1c1ccc(C#N)cc1 (stereo not shown) [Example 61]	0.13	
CC1=C(C(=O)c2cccnc2)C(c2ccc(C#N)cc2)N(CC(=O)O)C(=O)N1c1cccc(C(F)(F)F)c1 (stereo not shown) [Example 31A, [6-(4-Cyanophenyl)-4-methyl-2-oxo-5-(pyridin-3-ylcarbonyl)-3-[3-(trifluoro-methyl)phenyl]-3,6-dihydropyrimidin-1(2H)-yl]acetic acid]	0.01	
CC1=C(C(=O)O)C(c2ccc(C#N)cc2)N(Cc2cccc(/C=C/C(=O)O)c2)C(=O)N1c1cccc(C(F)(F)F)c1 (stereo not shown) [Example 39, 3-{3-[(E)-2-Carboxyvinyl]benzyl}-4-(4-cyanophenyl)-6-methyl-2-oxo-1-[3-(trifluoromethyl)-phenyl]-1,2,3,4-tetrahydropyrimidine-5-carboxylic acid]	0.12	
CC1=C(C#N)C(c2ccc(C#N)nc2)NC(=O)N1c1cccc(C(F)(F)F)c1 (stereo not shown) [Example 19A, 4-(6-Cyanopyridin-3-yl)-6-methyl-2-oxo-1-[3-(trifluoromethyl)phenyl]-1,2,3-,4-tetrahydro-pyrimidine-5-carbonitrile]	0.07	
CC1=C(C(=O)c2ccco2)C(c2ccc(C#N)cc2)N(CC(=O)O)C(=O)N1c1cccc(C(F)(F)F)c1 (stereo not shown) [Example 29A, [6-(4-Cyanophenyl)-5-(2-furoyl)-4-methyl-2-oxo-3-[3-(trifluoromethyl)pheny-l]-3,6-dihydropyrimidin-1(2H)-yl]acetic acid]	0.02	
α1PI: α1 protease inhibitor, used as the positive inhibitor of neutrophil elastase		inhibition of 3H-elastin elastolysis ([2]; at 1.2 μM, n=3 different donors at 3.6×10^5 cells per well): 83.46±3.97%
CC(=O)C1=C(C)N(c2cccc(C(F)(F)F)c2)C(=O)N(CC(=O)NS(=O)(=O)c2ccc(C#N)cc2)[C@@H]1c1ccc(C#N)cc1 [Example 74]	0.01	
CC1=C(C(=O)c2ccco2)C(c2ccc(C#N)cc2)N(Cc2cccc(C(=O)O)c2)C(=O)N1c1cccc(C(F)(F)F)c1 (stereo not shown) [Example 44]	0.03	
CC(=O)C1=C(C)N(c2cccc(C(F)(F)F)c2)C(=O)N(/C=C/C(=O)O)C1c1ccc(C#N)cc1 (stereo not shown) [Example 24]	0.01	
